Here are results for 1 compound from ChEMBL document CHEMBL3638839, “Azetidine derivatives” (2015).

This test concerns the target T1, Fatty-acid amide hydrolase 1 (Homo sapiens, UniProt O00519).
T1 sequence (O00519 whole entry): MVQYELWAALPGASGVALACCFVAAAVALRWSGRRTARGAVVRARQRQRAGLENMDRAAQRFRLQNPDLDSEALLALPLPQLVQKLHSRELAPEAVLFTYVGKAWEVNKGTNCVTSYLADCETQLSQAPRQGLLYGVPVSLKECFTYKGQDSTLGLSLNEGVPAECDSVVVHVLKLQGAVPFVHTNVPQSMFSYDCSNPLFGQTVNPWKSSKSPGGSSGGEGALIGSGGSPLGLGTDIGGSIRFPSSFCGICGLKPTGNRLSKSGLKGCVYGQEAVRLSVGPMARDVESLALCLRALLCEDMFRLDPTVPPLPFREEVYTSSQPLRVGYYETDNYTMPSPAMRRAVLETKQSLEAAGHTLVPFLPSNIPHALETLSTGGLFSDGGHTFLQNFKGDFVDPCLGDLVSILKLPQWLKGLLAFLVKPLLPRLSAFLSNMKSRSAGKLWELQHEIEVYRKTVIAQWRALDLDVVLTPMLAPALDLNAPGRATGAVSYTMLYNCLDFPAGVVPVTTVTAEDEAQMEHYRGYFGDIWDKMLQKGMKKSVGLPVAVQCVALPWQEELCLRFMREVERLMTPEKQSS
Description: Inhibition Assay: Human FAAH 1 activity was determined by measuring the liberation of the highly fluorescent 7-amino, 4-methyl Coumarin (AMC) generated during hydrolysis of the substrate arachidonoyl 7-amino, 4-methyl coumarin amide (AAMCA) by FAAH. Inhibition of human FAAH 1 activity was determined as a percentage reduction of the fluorescence determined in the absence of compound.The assay was carried out in black-walled, clear bottom, 384-well plates. 27.5 ul of human FAAH 1 protein (in FAAH assay buffer: 50 mM Hepes, 0.01% Triton X-100, 1 mM EDTA, 0.5 mg/ml BSA (fatty-acid-free), pH 8.2) was pre-incubated, at 10 nM, with increasing concentrations of compounds (2.5 ul in 100% DMSO) for 1 hour at room temperature. 2.5 ul of DMSO was added for total controls (100% FAAH activity) and 2.5 ul of URB-597, a known inhibitor of FAAH activity, (at a final, saturating, concentration of 10 uM) was used for non-specific controls (0 FAAH activity).

The term IC50 denotes the point on the concentration scale where inhibition reaches its midpoint.

`COc1ccccc1-c1ccc(OC2CN(C(=O)Nc3cccnn3)C2)nc1`: the IC50 came out at 12 nM.
